Assay results published in US9045445B2, “Glycine transporter-1 inhibitors, methods of making them, and uses thereof” (Albany Molecular Research, Inc., priority 2010, dated 2015).
Where a name gives a salt, the structure may show the parent alone. Read-outs that look alike come from different tables or passages of the source.

Experiments:
[1] = molecular target: T1, glycine transporter-1 (GlyT-1) (Homo sapiens, UniProt P48067); test: [14C]glycine uptake assay in JAR cells endogenously expressing GlyT-1 (scintillation proximity); type: cell-based; conditions: JAR cells, [14C]glycine 5 μM, 3 hour incubation; read-out: GlyT-1 IC50
T1 construct: JAR cells (ATCC#HTB-144), which endogenously express GlyT-1; host or cells: JAR human choriocarcinoma cells
T1 sequence (P48067 1-706): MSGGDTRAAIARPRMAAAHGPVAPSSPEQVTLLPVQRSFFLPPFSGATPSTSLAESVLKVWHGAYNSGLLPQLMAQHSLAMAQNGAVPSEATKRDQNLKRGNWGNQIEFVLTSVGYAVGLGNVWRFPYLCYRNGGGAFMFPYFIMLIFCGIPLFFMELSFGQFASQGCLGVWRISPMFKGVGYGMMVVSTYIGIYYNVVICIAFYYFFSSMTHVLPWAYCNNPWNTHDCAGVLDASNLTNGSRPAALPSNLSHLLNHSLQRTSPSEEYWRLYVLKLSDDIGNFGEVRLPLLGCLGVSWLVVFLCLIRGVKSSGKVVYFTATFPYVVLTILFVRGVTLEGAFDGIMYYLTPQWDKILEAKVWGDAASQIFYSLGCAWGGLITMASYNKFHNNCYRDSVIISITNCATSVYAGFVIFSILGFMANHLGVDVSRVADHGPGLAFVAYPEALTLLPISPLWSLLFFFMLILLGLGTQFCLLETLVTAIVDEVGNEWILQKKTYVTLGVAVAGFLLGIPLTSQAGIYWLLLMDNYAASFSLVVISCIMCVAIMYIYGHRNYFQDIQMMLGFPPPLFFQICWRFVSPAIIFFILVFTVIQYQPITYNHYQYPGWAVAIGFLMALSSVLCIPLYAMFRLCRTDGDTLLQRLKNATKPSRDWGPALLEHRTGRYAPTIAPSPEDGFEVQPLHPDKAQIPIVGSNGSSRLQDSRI
How it was run: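 Human choriocarcinoma JAR cells (endogenous GlyT-1) attached overnight, then pre-incubated 10 min at room temperature with compound in pH 7.4 Hepes uptake buffer containing 5 mM alanine and 0.75% DMSO. Uptake of 5 μM [14C]glycine over 3 h at 37 °C read by scintillation proximity; IC50 from four-parameter fit of nine-point curves.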

[2] = molecular target: T2, glycine transporter-2 (GlyT-2) (Homo sapiens, UniProt Q9Y345); test: [14C]glycine uptake assay in HEK-GlyT-2 transfected cells; type: cell-based; conditions: HEK-GlyT-2 cells
T2 construct: expressed in transfected cells
T2 sequence (Q9Y345 1-797): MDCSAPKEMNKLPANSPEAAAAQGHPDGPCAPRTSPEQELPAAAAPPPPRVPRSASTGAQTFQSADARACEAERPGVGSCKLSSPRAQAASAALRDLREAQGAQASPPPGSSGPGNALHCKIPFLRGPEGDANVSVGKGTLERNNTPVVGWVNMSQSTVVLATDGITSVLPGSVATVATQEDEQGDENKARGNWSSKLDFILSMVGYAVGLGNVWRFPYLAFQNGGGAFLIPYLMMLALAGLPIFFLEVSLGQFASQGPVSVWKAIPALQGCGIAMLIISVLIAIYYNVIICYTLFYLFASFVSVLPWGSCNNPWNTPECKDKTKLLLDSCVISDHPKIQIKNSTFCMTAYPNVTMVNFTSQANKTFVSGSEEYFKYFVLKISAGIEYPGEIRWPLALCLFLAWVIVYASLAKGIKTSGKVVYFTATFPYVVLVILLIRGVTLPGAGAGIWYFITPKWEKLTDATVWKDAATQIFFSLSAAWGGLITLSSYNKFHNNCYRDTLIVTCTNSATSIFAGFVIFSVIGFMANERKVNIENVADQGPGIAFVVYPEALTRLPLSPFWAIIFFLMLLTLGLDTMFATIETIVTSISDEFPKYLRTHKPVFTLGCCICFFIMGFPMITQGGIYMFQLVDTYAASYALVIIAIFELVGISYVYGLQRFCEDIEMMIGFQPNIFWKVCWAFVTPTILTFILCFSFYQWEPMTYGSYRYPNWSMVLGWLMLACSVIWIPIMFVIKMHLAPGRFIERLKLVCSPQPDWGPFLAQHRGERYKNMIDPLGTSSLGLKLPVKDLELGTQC

[3] = test system: cerebrospinal fluid (CSF) glycine levels; test: CSF-glycine assay after oral administration; type: in vivo; conditions: Rattus norvegicus, po, rats, read-out: % CSF Glycine Increase versus Vehicle Control
Description: This study measured cerebrospinal fluid (CSF) glycine levels after oral administration of test compound. […] After the specified pretreatment time, the rats were euthanized by CO2 asphyxiation and a hypodermic needle was inserted into the cisterna magna to withdraw 50-100 μl of CSF. The CSF was diluted with deuterated-glycine as an internal standard glycine was quantified by LC/MS/MS.

Row | Structure (SMILES) | IC50 [1] [nM] | IC50 [2] [nM] | change in vivo at 10 mg/kg ([3]; 2 h, pretreatment 120 mins) [%] | change in vivo at 30 mg/kg ([3]; 2 h, pretreatment 120 mins) [%] | change in vivo at 10 mg/kg ([3]; 6 h, pretreatment 360 mins) [%] | change in vivo at 30 mg/kg ([3]; 6 h, pretreatment 360 mins) [%] | change in vivo at 3 mg/kg ([3]; 2 h, dose 3 mg/kg, pretreatment 120 mins) [%]
1 | Cn1cc(S(=O)(=O)N2CCN(C3(CNC(=O)c4ccc(C(F)(F)F)cc4Cl)CCC(F)(F)CC3)CC2)nn1 [compound 193, 2-Chloro-N-((4,4-difluoro-1-(4-(1-methyl-1H-1,2,3-triazol-4-ylsulfonyl)piperazin-1-yl)cyclohexyl)methyl)-4-(trifluoromethyl)benzamide Hydrochloride] | 1 | > 75000 | 282 | 279 | 303 | 355 | –
2 | CC(NC(=O)c1ccc(C(F)(F)F)cc1Cl)C1(N2CCN(S(=O)(=O)c3cn(C)nn3)CC2)CCC(F)(F)CC1 (stereo not drawn) [compound 224, 2-Chloro-N-(1-(4,4-difluoro-1-(4-(1-methyl-1H-1,2,3-triazol-4-ylsulfonyl)piperazin-1-yl)cyclohexyl)ethyl)-4-(trifluoromethyl)benzamide Hydrochloride] | 1 | > 75000 | 347 | – | – | – | 186
3 | CCCS(=O)(=O)N1CCN(C2(CNC(=O)c3ccc(C(F)(F)F)cc3C(F)(F)F)CCOCC2)CC1 [compound 267, N-((4-(4-(propylsulfonyl)piperazin-1-yl)tetrahydro-2H-pyran-4-yl)methyl)-2,4-bis(trifluoromethyl) benzamide Hydrochloride] | 46 | – | 138 | 229 | 129 | 190 | –
4 | CCCS(=O)(=O)N1CCN(C2(CNC(=O)c3ccccc3OC)CCC(F)(F)CC2)CC1 [compound 133, N-((4,4-Difluoro-1-(4-(propylsulfonyl)piperazin-1-yl)cyclohexyl)methyl)-2-methoxybenzamide Hydrochloride] | 48 | > 75000 | – | – | – | – | –
5 | CCCS(=O)(=O)N1CCN(C2(CNC(=O)c3c(F)cc(Cl)cc3F)CCCCCC2)CC1 [compound 51, 4-Chloro-2,6-difluoro-N-((1-(4-propylsulfonyl)piperazin-1-yl)cycloheptyl)methyl) benzamide Hydrochloride] | 13 | > 75000 | – | – | – | – | –
6 | COc1cc(F)cc(C)c1C(=O)NCC1(N2CCN(S(=O)(=O)CC3CC3)CC2)CCCCCC1 [compound 86, N-((1-(4-(Cyclopropylmethyl-sulfonyl)piperazin-1-yl)cycloheptyl)methyl)-4-fluoro-2-methoxy-6-methylbenzamide Hydrochloride] | 99 | > 75000 | – | – | – | – | –
7 | Cn1cc(S(=O)(=O)N2CCN(C3(CNC(=O)c4cc(F)c(F)cc4Cl)CCC(F)(F)CC3)CC2)nn1 [compound 235, 2-Chloro-N-((4,4-difluoro-1-(4-(1-methyl-1H-1,2,3-triazol-4-ylsulfonyl)piperazin-1-yl)cyclohexyl)methyl)-4,5-difluorobenzamide Hydrochloride] | 3 | > 75000 | – | – | – | – | –
8 | Cn1cnc(S(=O)(=O)N2CCN(C3(CNC(=O)c4c(F)cc(F)cc4F)CCC(F)(F)CC3)CC2)c1 [compound 167, N-((4,4-Difluoro-1-(4-(1-methyl-1H-imidazol-4-ylsulfonyl)piperazin-1-yl)cyclohexyl)methyl)-2,4,6-trifluorobenzamide Hydrochloride] | 11 | > 75000 | – | – | – | – | –
9 | Cn1cc(S(=O)(=O)N2CCN(C3(CNC(=O)c4c(F)cc(F)cc4F)CCC(F)(F)CC3)CC2)nn1 [compound 234, N-((4,4-Difluoro-1-(4-(1-methyl-1H-1,2,3-triazol-4-ylsulfonyl)piperazin-1-yl)cyclohexyl)methyl)-2,4,6-trifluorobenzamide Hydrochloride] | 4 | > 75000 | – | – | – | – | –
10 | CCCS(=O)(=O)N1CCN(C2(CNC(=O)c3ccc(Cl)cc3Cl)CCC(F)(F)CC2)CC1 [compound 136, 2,4-Dichloro-N-((4,4-difluoro-1-(4-(propylsulfonyl)piperazin-1-yl)cyclohexyl)methyl) benzamide Hydrochloride] | 36 | > 75000 | – | – | – | – | –
11 | CCCS(=O)(=O)N1CCN(C2(CNC(=O)c3ccc(Cl)cc3OC)CCCCCC2)CC1 [compound 53, 4-Chloro-2-methoxy-N-((1-(4-(propylsulfonyl)piperazin-1-yl)cycloheptyl)methyl) benzamide Hydrochloride] | 373 | > 75000 | – | – | – | – | –
12 | Cn1cc(S(=O)(=O)N2CCN(C3(CNC(=O)c4c(Cl)cccc4Cl)CCCC3)CC2)nn1 [compound 109, 2,6-Dichloro-N-((1-(4-(1-methyl-1H-l,2,3-triazol-4-ylsulfonyl)piperazin-1-yl)cyclopentyl)methyl) benzamide Hydrochloride] | 31 | > 75000 | – | – | – | – | –
13 | Cn1cnc(S(=O)(=O)N2CCN(C3(CNC(=O)c4ccc(Cl)cc4Cl)CCCC3)CC2)c1 [compound 105, Hydrochloride] | 102 | > 75000 | – | – | – | – | –
14 | COc1cccc(F)c1C(=O)NCC1(N2CCN(S(=O)(=O)CC3CC3)CC2)CCCCC1 [compound 83, N-((1-(4-(Cyclopropylmethyl-sulfonyl)piperazin-1-yl)cyclohexyl)methyl)-2-fluoro-6-methoxybenzamide Hydrochloride] | 57 | > 75000 | – | – | – | – | –
15 | CCCS(=O)(=O)N1CCN(C2(CNC(=O)c3c(Cl)cc(Cl)cc3Cl)CCC(F)(F)CC2)CC1 [compound 260, 2,4,6-Trichloro-N-((4,4-difluoro-1-(4-(propylsulfonyl)piperazin-1-yl)cyclohexyl)methyl) benzamide Hydrochloride] | 17 | > 75000 | – | – | – | – | –
16 | CCCS(=O)(=O)N1CCN(C2(CNC(=O)c3ccc(F)cc3F)CCCCC2)CC1 [compound 39, 2,4-Difluoro-N-((1-(4-(propylsulfonyl)piperazin-1-yl)cyclohexyl)methyl) benzamide Hydrochloride] | 132 | ≥ 75000 | – | – | – | – | –
17 | CCCS(=O)(=O)N1CCN(C2(CNC(=O)c3c(F)cccc3OC)CCCCCC2)CC1 [compound 55, 2-Fluoro-6-methoxy-N-((1-(4-(propylsulfonyl)piperazin-1-yl)cycloheptyl)methyl) benzamide Hydrochloride] | 14 | > 75000 | – | – | – | – | –
18 | O=C(NCC1(N2CCC(S(=O)(=O)CC3CC3)CC2)CCCCC1)c1ccc(Cl)cc1Cl [compound 200, 2,4-Dichloro-N-((1-(4-(cyclopropylmethyl-sulfonyl)piperidin-1-yl)cyclohexyl)methyl) benzamide Hydrochloride] | 1080 | > 75000 | – | – | – | – | –
